{"source": "patent US20110118464A1", "about": "“HALOGENATED XANTHINE DERIVATIVES AND PRECURSORS THEREOF FOR ANTI-CANCER AND ANTI-METASTASIS ACTIVITY AND PREPARING METHOD THEREOF” (Kaohsiung Medical University, priority 2009, published 2011)", "key": {"[1]": {"tested_on": "cGMP (3′,5′-cyclic guanosine monophosphate)", "test": "cGMP concentration in LNCaP cells", "format": "cell-based, human", "conditions": "for cGMP concentration: 48 hours, FIG. 9(A)"}, "[2]": {"tested_on": "cAMP (cyclic adenosine monophophate)", "test": "cAMP concentration in LNCaP cells", "format": "cell-based, human"}, "AR (androgen receptor)": {"tested_on": "AR (androgen receptor)", "test": "Immunoblotting of AR in LNCaP", "format": "cell-based, human", "conditions": "100 μM, 48 hours, FIG. 10(A)", "method": "(§1) The amount of protein is determined by Bio-Rad protein reagent. Bovine serum albumin (BSA) of 0.1 mg/ml is the protein standard in the protein assay. Distilled water of 240 μl containing various known protein standards (the amounts of protein respectively are 0, 2, 4, 8, 12, 16, 20 and 30 μg) and 60 μl of Bio-Rad reagent are mixed gently in 96-well cell culture plate. The absorbance at the wavelength of 595 nm relative to the absorbance of blank test is determined using spectrophotometer (Hitachi U-200, Japan). A standard curve is evaluated from the known amounts of the protein standards and the absorbance thereof, and the amounts of the unknown proteins can be obtained according to this standard curve.\n(§2) The quantified proteins are resolved by sodium dodecyl sulfate-polyacrylamide gel electrophoresis (SDS-PAGE), and the protein expression is evaluated by immunoblotting. The dilution rate of primary antibodies (i.e. anti-AR, anti-p21, anti-p27, anti-cyclin D, anti-cdk4 and anti-cdk6) is 1000 times, and that of anti-β-actin is 5000 times. The primary antibody detects the proteins for 1 hour, and the primary antibody is detected with the horseradish peroxidase (HRP)-conjugated secondary antibody for 1 hour. Finally, the detected protein are developed with enhanced chemical luminescence."}, "[3]": {"tested_on": "human prostate carcinoma LNCaP", "test": "MTT assay, survival rate of LNCaP", "conditions": "various concentrations, 24 and 48 hours, FIG. 7(A)"}, "PZ-HPV-7 cells": {"tested_on": "PZ-HPV-7 cells", "conditions": "Liu et al., 2007; cited from earlier work"}, "Bcl-2": {"tested_on": "Bcl-2", "test": "Bcl-2 expression in LNCaP", "format": "cell-based, human", "conditions": "various concentrations, 48 hours, FIG. 16(B)"}, "LNCaP prostate tumor": {"tested_on": "LNCaP prostate tumor", "test": "Tumor size in LNCaP-xenografted rude mice", "format": "in vivo", "conditions": "for dose at which the significant effect is obtained: data not shown; for effect on LNCaP prostate tumor compared with the control: once per day for two months", "method": "In addition to observe the inhibition effect of the halogenated xanthine derivatives on the cancer cell lines in the cellular level, the animal experiments are further performed. LNCaP-xenografted rude mice are injected intraperitoneally with KMUP-1 ([…]) and dosed orally with KMUP-1 (200 and 400 mg/kg) respectively once per day, and a continuity for two months. […] The significant effect can be obtained (data not shown) when KMUP-1 is 100 mg/kg. […] The significant effect can be obtained (data not shown) when KMUP-1 is 200 mg/kg."}, "[4]": {"tested_on": "human prostate carcinoma DU145", "test": "MTT assay, survival rate of DU145", "conditions": "various concentrations, 24 and 48 hours, FIG. 7(B)"}, "p21 protein": {"tested_on": "p21 protein", "test": "Immunoblotting of p21 in LNCaP", "format": "cell-based, human", "method": "as §1, §2"}, "Cyclin D protein": {"tested_on": "Cyclin D protein", "test": "Immunoblotting of Cyclin D in LNCaP", "format": "cell-based, human", "method": "as §1, §2"}, "p21": {"tested_on": "p21", "conditions": "Liu et al., 2007; cited from earlier work"}, "[5]": {"tested_on": "human prostate epithelial PZ-HPV-7", "conditions": "Liu et al., 2007; cited from earlier work"}, "Bax/Bcl-2 ratio": {"tested_on": "Bax/Bcl-2 ratio", "test": "Bax/Bcl-2 ratio in LNCaP", "format": "cell-based, human", "conditions": "various concentrations, 48 hours, FIG. 16(C)"}, "Bax": {"tested_on": "Bax", "test": "Bax expression in LNCaP", "format": "cell-based, human", "conditions": "various concentrations, 48 hours, FIG. 16(A)"}, "p27 protein": {"tested_on": "p27 protein", "test": "Immunoblotting of p27 in LNCaP", "format": "cell-based, human", "method": "as §1, §2"}, "[6]": {"tested_on": "human prostate carcinoma PC-3", "test": "MTT assay, survival rate of PC-3", "conditions": "various concentrations, 24 and 48 hours, FIG. 7(C)"}, "[7]": {"test": "Body weight of LNCaP-xenografted rude mice", "format": "in vivo"}, "[8]": {"tested_on": "dihydrotestosterone receptor", "test": "Dihydrotestosterone receptor expression in LNCaP", "format": "cell-based, human", "conditions": "100 μM, 48 hours, FIG. 10(B)", "method": "as §1, §2"}, "CDK4 protein": {"tested_on": "CDK4 protein", "test": "Immunoblotting of CDK4 in LNCaP", "format": "cell-based, human", "method": "as §1, §2"}, "[9]": {"tested_on": "human tongue squamous cell carcinoma SCC-25", "test": "MTT assay, survival rate of SCC-25", "conditions": "0.1-100 μM, 24 and 48 hours, FIG. 2"}, "[10]": {"tested_on": "human prostate carcinoma LNCaP", "test": "Analysis of cell cycle in LNCaP", "format": "cell-based", "conditions": "increased concentrations, 24 and 48 hours, FIG. 8", "protocol": "The counted cells (10^5 cells/ml×3 ml) are seeded in the 6-well cell culture plate for 24 hours for attaching on the bottom of the cell culture plate, then DMEM/F12 medium without fetal bovine serum (FBS) is added therein for further incubation for 24 hours. Next, the medium is replaced with DMEM/F12 supplemented with 10% FBS, and the drugs at different concentrations are respectively added therein for reacting 24 and 48 hours. The cellular inoculate is harvested, and the wells are washed with phosphate buffered saline (PBS) for twice or triplet. The cells are eluted with 0.25% trypsin-0.02% EDTA, and are collected with the original inoculate in the centrifuge tube which is centrifuged at 4° C. at 1250×g (1200 rpm) for 5 minutes. Next, the supernatant is discarded and the pellet is resuspended in 1 ml PBS and the resuspended cells are transferred to an eppendorf tube which is centrifuged once again. The supernatant is discarded, and the cells are fixed with 300 μl PBS (4° C.) and 700 μl of 99.5% ethanol (50, 50, 100, 100, 200 and 200 μl ethanol respectively and sequentially added to make the cells resuspended in the well) for 30 minutes. […] The cells are transferred into a tube, and the cells are detected using CyFlow® cytometer. The ratios of G0/G1, S and G2/M phases are determined using multicycle DNA analysis software."}}}
{"smiles": "O=c1onc2cnc3ccccc3n12", "note": "[ODQ, 1H-[1,2,4]oxadiazolo[4,3-a]quinoxalin-1-one, reference compound]", "values": [{"measurement": "antagonism of the KMUP-1 effect on cGMP", "setting": "[1]; 1 μM ODQ with KMUP-1, 48 hours", "result": "antagonists to each other"}]}
{"smiles": "Nc1ncnc2c1ncn2C1CCCO1", "note": "(stereo not drawn) [SQ22536, reference compound]", "values": [{"measurement": "antagonism of the KMUP-1 effect on cAMP", "setting": "[2]; 10 μM SQ22536 with 100 μM KMUP-1, 48 hours", "result": "can antagonize the improved effect of KMUP-1"}]}
{"smiles": "Cn1c(=O)c2c(ncn2CCN2CCN(c3ccccc3Cl)CC2)n(C)c1=O", "note": "[KMUP-1, 7-[2-[4-(2-chlorobenzene)piperazinyl]ethyl]-1,3-dimethylxanthine]", "values": [{"measurement": "AR expression", "setting": "AR (androgen receptor)", "result": "completely inhibited"}, {"measurement": "cGMP concentration", "setting": "[1]; KMUP-1 individually", "result": "increases the content of cGMP"}, {"measurement": "cGMP concentration", "setting": "[1]; together with 1 μM ODQ", "result": "the increased effect is not significant as KMUP-1 individually functioned on LNCaP cells"}, {"measurement": "survival rate relative to the control", "setting": "[3]", "result": "decrease with the increased concentrations of KMUP-1"}, {"measurement": "effect on cell cycle of PZ-HPV-7", "setting": "PZ-HPV-7 cells", "result": "cease of cell cycle at G0/G1 phase"}, {"measurement": "Bcl-2 expression", "setting": "Bcl-2", "result": "decreases with the increased concentration of KMUP-1"}, {"measurement": "LNCaP prostate tumor size", "setting": "LNCaP prostate tumor; injected subcutaneously, 100 and 150 mg/kg, FIG. 17(A)", "result": "does not enlarge anymore"}, {"measurement": "dose at which the significant effect is obtained", "setting": "LNCaP prostate tumor; intraperitoneal injection", "result": 100, "unit": "mg/kg"}, {"measurement": "effect on LNCaP prostate tumor compared with the control", "setting": "LNCaP prostate tumor; intraperitoneal injection", "result": "can significantly eliminate the LNCaP prostate tumor"}, {"measurement": "dose at which the significant effect is obtained", "setting": "LNCaP prostate tumor; oral dosage", "result": 200, "unit": "mg/kg"}, {"measurement": "effect on LNCaP prostate tumor compared with the control", "setting": "LNCaP prostate tumor; oral dosage", "result": "can significantly eliminate the LNCaP prostate tumor"}, {"measurement": "LNCaP prostate tumor size", "setting": "LNCaP prostate tumor; orally dosed, 400 mg/kg, FIG. 18(A)", "result": "does not enlarge anymore"}, {"measurement": "survival rate relative to the control", "setting": "[4]", "result": "decrease with the increased concentrations of KMUP-1"}, {"measurement": "p21 expression at 100 μM relative to that at 1 μM", "setting": "p21 protein", "result": "four times"}, {"measurement": "p21 expression", "setting": "p21 protein; various concentrations, 24 and 48 hours, FIG. 11", "result": "would be increased"}, {"measurement": "Cyclin D expression at 100 μM relative to that at 1 μM", "setting": "Cyclin D protein; 24 hours", "result": "one ninth"}, {"measurement": "Cyclin D expression at 100 μM relative to that at 1 μM", "setting": "Cyclin D protein; 48 hours", "result": 20, "unit": "%"}, {"measurement": "Cyclin D expression", "setting": "Cyclin D protein; various concentrations, 24 and 48 hours, FIG. 13", "result": "would be decreased"}, {"measurement": "p21 expression in PZ-HPV-7", "setting": "p21", "result": "increase p21 expression"}, {"measurement": "growth of PZ-HPV-7", "setting": "[5]", "result": "can inhibit the growth"}, {"measurement": "Bax/Bcl-2 ratio", "setting": "Bax/Bcl-2 ratio", "result": "increases with the increased concentration of KMUP-1"}, {"measurement": "Bax expression", "setting": "Bax", "result": "has no difference with the increased concentration of KMUP-1"}, {"measurement": "p27 expression at 100 μM relative to that at 1 μM", "setting": "p27 protein; 24 hours", "result": "twice"}, {"measurement": "p27 expression", "setting": "p27 protein; various concentrations, 24 and 48 hours, FIG. 12", "result": "would be increased"}, {"measurement": "survival rate relative to the control", "setting": "[6]", "result": "decrease with the increased concentrations of KMUP-1"}, {"measurement": "body weight, experimental group versus control group", "setting": "[7]; dosed orally, eight weeks, FIG. 18(B)", "result": "do not have significant difference"}, {"measurement": "body weight", "setting": "[7]; subcutaneous injection, FIG. 17(B)", "result": "can decrease the body weight"}, {"measurement": "dihydrotestosterone receptor expression", "setting": "[8]", "result": "relatively low"}, {"measurement": "CDK4 expression at 100 μM relative to that at 1 μM", "setting": "CDK4 protein; 48 hours", "result": 50, "unit": "%"}, {"measurement": "CDK4 expression", "setting": "CDK4 protein; various concentrations, 24 and 48 hours, FIG. 14", "result": "would be decreased"}, {"measurement": "survival rate relative to the control", "setting": "[9]", "result": "decreases with the increased concentrations of KMUP-1"}, {"measurement": "cAMP concentration versus 100 μM KMUP-1 individually", "setting": "[2]; 100 μM KMUP-1 plus 10 μM SQ22536, 48 hours", "result": "can decrease the amount of cAMP in LNCaP cells"}, {"measurement": "cAMP concentration", "setting": "[2]; KMUP-1 individually, 48 hours, FIG. 9(B)", "result": "increases the amount of cAMP in LNCaP cells"}, {"measurement": "effect on cell cycle", "setting": "[10]", "result": "cease in G0/G1 phase and tend to sub-G1 phase"}]}
